The supplement of paper PMC4314810
± gives the standard deviation of the averaged measurements.

What follows are sequences tested on MCF7 (assay: HRG-induced Akt activation (dPAkt = log2 pAkt/Akt HRG-stimulated minus log2 pAkt/Akt basal) (log2 ratio difference); higher = stronger HRG-induced Akt(T308) phosphorylation). Conditions: miRNA mimic concentration 10 nM; time after transfection 72 h; heregulin 10 ng/ml; stimulation time 1 h.
Procedure, shortened: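 Akt activation induced by heregulin was calculated as the difference between stimulated and unstimulated log ratios of phospho-Akt to total Akt, then averaged across replicates. The ratio was taken as log2(pAkt/Akt) from In-Cell Western readings of phospho-Akt(T308) and total Akt on an Odyssey, corrected for column-wise fixation decay. Before reading, MCF7 cells ([…], 96-well plates) transfected with 879 miRNA mimics at 10 nM final via Lipofectamine RNAiMax were, after 72 h, given 10 ng/ml heregulin-beta1 for 1 h or no stimulus, then fixed with 4% PFA. Two biological replicates were run.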

Sequence | HRG-induced Akt activation (log2)
UAACACUGUCUGGUAAAGAUGG | 0.763 ± 0.24
ACAAAGUGCUUCCCUUUAGAGU | 1.75 ± 0.12
UAGCAGCACGUAAAUAUUGGCG | 2.03 ± 0.15
ACAGAUUCGAUUCUAGGGGAAU | 1.75 ± 0.2
CCGUCGCCGCCACCCGAGCCG | 1.23 ± 0.13
AGCAGCAUUGUACAGGGCUAUCA | 1.35 ± 0.26
UAUUGCACAUUACUAAGUUGCA | 1.07 ± 0.077
UGCCUACUGAGCUGAAACACAG | 1.549 ± 0.007
CUUUCAGUCAGAUGUUUGCUGC | 1.67 ± 0.24
AGUGUGGCUUUCUUAGAGC | 0.799 ± 1.1
UCGAGGAGCUCACAGUCUAGU | 1.71 ± 0.23
UCACAGUGAACCGGUCUCUUU | 1.04 ± 0.063
CACCCGGCUGUGUGCACAUGUGC | 1.53 ± 0.48
CUCCAGAGGGAAGUACUUUCU | 2.02 ± 0.14
ACUGUUGCUAAUAUGCAACUCU | 0.931 ± 0.72
AGUCAUUGGAGGGUUUGAGCAG | 1.86 ± 0.057
AAUCAUGUGCAGUGCCAAUAUG | 1.51 ± 0.15
GUGACAUCACAUAUACGGCAGC | 1.08 ± 0.31
UUAGGGCCCUGGCUCCAUCUCC | 1.954 ± 0.014
AGGGGUGGUGUUGGGACAGCUCCGU | 2.91 ± 0.23
AACACACCUAUUCAAGGAUUCA | 1.11 ± 0.37
CAGUGCAAUGAUGAAAGGGCAU | 1.31 ± 0.024
CAACAAAUCACAGUCUGCCAUA | 1.2 ± 0.27
UACCCAUUGCAUAUCGGAGUUG | 1.78 ± 0.071

Sequence | HRG-induced Akt activation (log2)
AGGGCUUAGCUGCUUGUGAGCA | 1.75 ± 0.56
CCUAUUCUUGAUUACUUGUUUC | 1.273 ± 0.0028
UUAUGGUUUGCCUGGGACUGAG | 1.74 ± 0.28
UGGUUGUAGUCCGUGCGAGAAUA | 1.37 ± 0.19
UUUUGCAAUAUGUUCCUGAAUA | 1.01 ± 0.24
CAAUGUUUCCACAGUGCAUCAC | 1.1 ± 0.42
ACUGGCUAGGGAAAAUGAUUGGAU | 1.24 ± 0.61
GUGUCUUUUGCUCUGCAGUCA | 1.75 ± 0.15
CAAAGUGCCUCCCUUUAGAGUG | 0.831 ± 0.84
CCCAGAUAAUGGCACUCUCAA | 1.55 ± 0.12
AACCCGUAGAUCCGAACUUGUG | 1.11 ± 0.13
UCCUCUUCUCCCUCCUCCCAG | 1.77 ± 0.039
GAAAUCAAGCGUGGGUGAGACC | 1.77 ± 0.15
GCUGACUCCUAGUCCAGGGCUC | 1.53 ± 0.099
CAUCUUACUGGGCAGCAUUGGA | 2.05 ± 0.12
UGAUUGGUACGUCUGUGGGUAG | 2.35 ± 0.031
UAAAGUGCUGACAGUGCAGAU | 1.52 ± 0.054
UACUCAGGAGAGUGGCAAUCAC | 1.1 ± 0.15
ACUUGGGCACUGAAACAAUGUCC | 1.5 ± 0.025
AAAAGUAAUCGCGGUUUUUGUC | 1.2 ± 0.063
AAGGAGCUUACAAUCUAGCUGGG | 1.87 ± 0.21
UCCCACGUUGUGGCCCAGCAG | 1.44 ± 0.14
CACUGGCUCCUUUCUGGGUAGA | 2.02 ± 0.43
CAUUGCACUUGUCUCGGUCUGA | 1.74 ± 0.8

Sequence | HRG-induced Akt activation (log2)
UUGAGAAGGAGGCUGCUG | 1.18 ± 0.17
CUGAAGCUCAGAGGGCUCUGAU | 1.38 ± 0.13
UAGCAGCACAUCAUGGUUUACA | 1.59 ± 0.025
GAUUUCAGUGGAGUGAAGUUC | 1.744 ± 0.0085
AAUGGCGCCACUAGGGUUGUG | 1.42 ± 0.35
GUGGGUACGGCCCAGUGGGGGG | 1.24 ± 0.18
CAGUGCCUCGGCAGUGCAGCCC | 1.45 ± 0.064
CUGGAGAUAUGGAAGAGCUGUGU | 1.14 ± 0.047
CAGCAGCAAUUCAUGUUUUGAA | 1.53 ± 0.33
CAACGGAAUCCCAAAAGCAGCUG | 1.51 ± 0.045
UGUAGUGUUUCCUACUUUAUGGA | 1.77 ± 0.26
AUCAUAGAGGAAAAUCCACGU | 2.13 ± 0.46
UAUGUAACAUGGUCCACUAACU | 1.97 ± 0.17
UCCGUCUCAGUUACUUUAUAGC | 1.63 ± 0.18
UGGAGUGUGACAAUGGUGUUUG | 2.527 ± 0.012
CAAAGGUAUUUGUGGUUUUUG | 1.74 ± 0.066
AGUUAAUGAAUCCUGGAAAGU | 1.46 ± 0.25
CCUGUUCUCCAUUACUUGGCUC | 1.53 ± 0.36
CUCUAGAGGGAAGCACUUUCUG | 2.15 ± 0.078
ACUGUAGUAUGGGCACUUCCAG | 1.46 ± 0.29
UUUUGCACCUUUUGGAGUGAA | 1.55 ± 0.13
AGGCGGGGCGCCGCGGGACCGC | 1.22 ± 0.12
CAGCCACAACUACCCUGCCACU | 1.94 ± 0.99
UGAGCUGCUGUACCAAAAU | 2.107 ± 0.0035

Sequence | HRG-induced Akt activation (log2)
UCUGCAGGGUUUGCUUUGAG | 1.07 ± 0.059
CGAAAACAGCAAUUACCUUUGC | 1.364 ± 0.0018
UAAGUGCUUCCAUGCUU | 0.459 ± 0.22
ACGGGUUAGGCUCUUGGGAGCU | 1.38 ± 0.043
AAAAGUAAUUGCGGUCUUUGGU | 1.32 ± 0.034
CUAUACAAUCUACUGUCUUUC | 1.11 ± 0.051
GGGGGUCCCCGGUGCUCGGAUC | 1.7 ± 0.064
UCCCACCGCUGCCACCC | 1.98 ± 0.17
UAGUACUGUGCAUAUCAUCUAU | 1.44 ± 0.47
CCUCCCACACCCAAGGCUUGCA | 1.37 ± 0.3
AGGGAGGGACGGGGGCUGUGC | 1.89 ± 0.16
CCCCAGGGCGACGCGGCGGG | 2.057 ± 0.012
CAGUGCAAUAGUAUUGUCAAAGC | 1.02 ± 0.51
GUUCAAAUCCAGAUCUAUAAC | 1.08 ± 0.18
UGGGGAGCUGAGGCUCUGGGGGUG | 1.74 ± 0.26
CCCCCACAACCGCGCUUGACUAGCU | 1.4 ± 0.091
UAAGGUGCAUCUAGUGCAGAUAG | 2.27 ± 0.37
UUUGGUCCCCUUCAACCAGCUG | 1.54 ± 0.13
CUGAAGUGAUGUGUAACUGAUCAG | 1.727 ± 0.0053
CUUAGCAGGUUGUAUUAUCAUU | 1.81 ± 0.098
UGUUUUGAUAACAGUAAUGU | 1.44 ± 0.064
UCAGCAAACAUUUAUUGUGUGC | 1.819 ± 0.011
AAAGUGCUUCCUUUUUGAGGG | 0.963 ± 0.46
ACUUAAACGUGGAUGUACUUGCU | 1.93 ± 0.26

Sequence | HRG-induced Akt activation (log2)
UGGGAACGGGUUCCGGCAGACGCUG | 1.22 ± 0.16
AGUUAGGAUUAGGUCGUGGAA | 1 ± 0.39
UUUGUGACCUGGUCCACUAACC | 1.16 ± 0.88
UAUGUAACACGGUCCACUAACC | 1.73 ± 0.081
CAAAAAUCUCAAUUACUUUUGC | 2.04 ± 0.028
AAAGUGCUUCCCUUUGGACUGU | 0.806 ± 0.049
AAGUGCUUCCUUUUAGAGGGUU | 0.817 ± 0.012
UCACAAGUCAGGCUCUUGGGAC | 1.27 ± 0.15
AGCCUGAUUAAACACAUGCUCUGA | 1.23 ± 0.11
AAAAGUAAUUGUGGUUUUGGCC | 1.15 ± 0.15
UAACAGUCUACAGCCAUGGUCG | 1.37 ± 0.26
UUAGGCCGCAGAUCUGGGUGA | 1.39 ± 0.89
AAUAUUAUACAGUCAACCUCU | 1.21 ± 0.51
UGUGCUUGCUCGUCCCGCCCGCA | 1.82 ± 0.029
CUAGGUAUGGUCCCAGGGAUCC | 1.26 ± 0.24
CCCAGUGUUCAGACUACCUGUUC | 1.28 ± 0.6
AUGCACCUGGGCAAGGAUUCUG | 1.77 ± 0.18
CCCUGUGCCCGGCCCACUUCUG | 1.19 ± 0.05
UUAAGACUUGCAGUGAUGUUU | 1.25 ± 0.66
UGGCAGUGUAUUGUUAGCUGGU | 2.12 ± 0.35
UGUCACUCGGCUCGGCCCACUAC | 1.17 ± 0.18
UAUGUCUGCUGACCAUCACCUU | 2.316 ± 0.0055
AUCGUGCAUCCCUUUAGAGUGU | 1.54 ± 0.1
UGAUUGUAGCCUUUUGGAGUAGA | 1.96 ± 0.18

Sequence | HRG-induced Akt activation (log2)
UAAGGCACGCGGUGAAUGCC | 1.15 ± 0.41
AAUGCACCCGGGCAAGGAUUCU | 1.91 ± 0.056
UGAUAUGUUUGAUAUUGGGUU | 1.75 ± 0.041
CAAGCUCGCUUCUAUGGGUCUG | 1.18 ± 0.12
CAACCUGGAGGACUCCAUGCUG | 0.949 ± 0.19
UUGCAGCUGCCUGGGAGUGACUUC | 0.96 ± 0.045
UGAGUAUUACAUGGCCAAUCUC | 1.74 ± 0.27
UUUUGCGAUGUGUUCCUAAUAU | 1.67 ± 0.12
CACACACUGCAAUUACUUUUGC | 1.53 ± 0.053
AAUCAUACACGGUUGACCUAUU | 1.41 ± 0.42
UGAGGUAGUAGGUUGUAUGGUU | 1.07 ± 0.07
UAUGCAUUGUAUUUUUAGGUCC | 1.1 ± 0.81
UCACUGUUCAGACAGGCGGA | 2.02 ± 0.07
UUCACAUUGUGCUACUGUCUGC | 1.59 ± 0.03
AACACACCUGGUUAACCUCUUU | 1.23 ± 0.54
AGAGUUGAGUCUGGACGUCCCG | 1.98 ± 0.027
UCAGUGCACUACAGAACUUUGU | 0.519 ± 0.1
UGGAGGAGAAGGAAGGUGAUG | 1.81 ± 0.038
CUGUAAUAUAAAUUUAAUUUAUU | 1.42 ± 0.037
AAAAGUACUUGCGGAUUUUGCU | 1.58 ± 0.21
